In paper PMC4650693, “Characterization of two-step deglycosylation via oxidation by glycoside oxidoreductase and defining their subfamily” (Scientific Reports, 2015):

Target: T1, FAD-GO from Rhizobium sp. GIN611 (Rhizobium sp. GIN611, UniProt G9ILI7)
T1 construct: recombinant, expressed in E. coli Rosetta-gami 2 (DE3, pLysS)
T1 sequence (G9ILI7 1-561): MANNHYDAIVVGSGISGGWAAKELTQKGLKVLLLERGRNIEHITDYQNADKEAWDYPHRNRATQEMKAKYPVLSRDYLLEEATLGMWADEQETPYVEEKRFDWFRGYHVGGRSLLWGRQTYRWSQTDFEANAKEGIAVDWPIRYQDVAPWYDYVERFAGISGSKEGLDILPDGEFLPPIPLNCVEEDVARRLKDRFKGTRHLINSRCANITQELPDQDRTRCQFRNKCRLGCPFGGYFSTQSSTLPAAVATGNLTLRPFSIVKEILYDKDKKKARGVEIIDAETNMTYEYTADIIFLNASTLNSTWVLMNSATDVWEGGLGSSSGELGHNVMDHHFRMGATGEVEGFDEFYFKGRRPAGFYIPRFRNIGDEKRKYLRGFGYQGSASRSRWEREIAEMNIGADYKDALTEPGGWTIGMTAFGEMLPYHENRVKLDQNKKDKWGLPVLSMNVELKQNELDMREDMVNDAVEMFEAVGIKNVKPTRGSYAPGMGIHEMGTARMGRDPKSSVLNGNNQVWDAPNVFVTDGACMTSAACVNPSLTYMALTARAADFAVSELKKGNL
Assay: HPLC of oxidation and deglycosylation products
Format: biochemical
Conditions: C3-OH of glucose oxidised; FAD enzyme, O2
Excerpt: HPLC of oxidation and deglycosylation products on FAD-GO from Rhizobium sp.

Compound: CC(C)=CCC[C@](C)(O[C@@H]1O[C@H](CO)[C@@H](O)[C@H](O)[C@H]1O)[C@H]1CC[C@]2(C)[C@@H]1[C@H](O)C[C@@H]1[C@@]3(C)CC[C@H](O)C(C)(C)[C@@H]3CC[C@]12C [CK, Compound K]
- HPLC of oxidation and deglycosylation products: HPLC chromatogram of enzyme reactions using wild type, H493F mutant or H493A mutant enzyme
